Assay results as given in patent EP0142057A2, “Thiazoloquinazoline derivatives, their preparation and pharmaceutical compositions containing same” (F. HOFFMANN-LA ROCHE AG, priority 1983, dated 1985).

Assays:
[1] = tested on: antigen-induced bronchoconstriction; assay: In vivo screening procedure for SRS-A synthesis inhibitors in guinea pigs; details: 10 mg/kg i.v., 1 minute prior to antigen challenge
Text: Paralyzed, artificially ventilated, actively sensitized guinea pigs are pretreated with indomethacin (to divert the flow of endogenous arachidonic acid through the lipoxygenase pathway), pyrilamine maleate (to block any bronchoconstriction due to released histamine) and propranol (to enhance the sensitivity of the guinea pig bronchoconstriction to SRS-A) prior to challenging the animal with antigen. Under these conditions the resulting antigen-induced bronchoconstriction has been characterized as being attributable to the synthesis and release of SRS-A in the guinea pig lung. Test compounds are initially studies for their inhibitory properties in this test system by the intravenous route (at 10 mg/kg) given 1 minute prior to antigen challenge.

TXA2 synthase = target: T1, TXA2 synthase (Homo sapiens, UniProt P24557); assay: Thromboxane synthase inhibition, in vitro; format: biochemical; details: at 10^-7M; microsomal fractions from human platelets; read-out: TXA2Synthase Inhibition (% at 10^-7M)
T1 construct: using microsomal fractions from human platelets as enzyme source; from tissue; host or cells: human platelets (microsomal fraction)
T1 sequence (P24557 1-533): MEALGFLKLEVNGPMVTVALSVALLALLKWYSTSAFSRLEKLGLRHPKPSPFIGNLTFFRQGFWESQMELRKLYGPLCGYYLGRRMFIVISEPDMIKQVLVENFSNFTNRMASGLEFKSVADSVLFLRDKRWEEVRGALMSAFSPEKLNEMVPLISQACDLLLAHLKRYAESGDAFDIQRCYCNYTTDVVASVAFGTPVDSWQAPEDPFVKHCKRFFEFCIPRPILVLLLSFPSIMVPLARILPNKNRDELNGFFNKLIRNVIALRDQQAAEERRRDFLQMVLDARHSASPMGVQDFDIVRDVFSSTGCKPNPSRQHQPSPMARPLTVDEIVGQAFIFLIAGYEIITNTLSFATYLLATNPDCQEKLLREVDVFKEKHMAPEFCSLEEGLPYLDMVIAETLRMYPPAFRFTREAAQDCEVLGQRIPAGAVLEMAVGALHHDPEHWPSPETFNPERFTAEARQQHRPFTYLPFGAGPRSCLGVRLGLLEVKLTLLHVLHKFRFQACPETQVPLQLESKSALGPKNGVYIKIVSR
Method: TXA2 synthase activity is measured by following the conversion of ^14C-prostaglandin endoperoxide (PGH2) to ^14C-thromboxane A2 (TXA2) using microsomal fractions from human platelets as enzyme source. In the aqueous incubation medium, the TXA2 decomposes rapidly into TXB2. The amount of TXA2 synthase is adjusted so that under the conditions of the assay approximately 80-90% of the substrate, PGH2, is converted to product in control tubes. To prepare ^14C-PGH2, ^14C-AA (50-60 mCi/mmole: Rose Chem.) is incubated with sheep seminal vesicular gland microsomes for 1.5 minutes at 37°C and then the ^14C-PGH2 is extracted with diethylether, purified on columns of Sephadex LH-20 or silicic acid, and stored in acetone at -70°C. Incubations are done as follows. Sufficient ^14C-PGH2 to yield a final substrate concentration of 10 µM (30,000 cpm) is added to the incubation tubes and then the acetone is removed under nitrogen. The tubes are placed in an ice bath and then 215 1 of ice cold phosphate buffered saline, 10 1 of ethanol (control) or of test drug in ethanol, and 25 1 of the microsomal suspension are added with mixing in that order as rapidly as possible. The tubes are incubated at 22°C for 2 minutes, the reaction is stopped and then the radioactive products and the uncoverted PGH2 are extracted and analyzed by thin layer chromatography. […] The amount of ^14C-PGH2 converted to products was used as a measure of TXA2 synthase activity. Inhibitors were tested initially at a final concentration of 100 µM. Results obtained with representative compounds of the present invention in this assay are summarized hereafter in Table I.

| Compound | inhibition of the bronchoconstriction [1] [%] | inhibition at 0.1 µM (TXA2 synthase) [%] |
| --- | --- | --- |
| CC(C)c1ccc2nc3sc(C(=O)NCCCCc4ccccn4)cn3c(=O)c2c1 [Example 11] | 44 | – |
| CC(C)c1ccc2nc3sc(C(=O)NCCCCOc4cccnc4)cn3c(=O)c2c1 | – | 30 |
